Results on 8 molecules are retold here after patent publication US20230017045A1, “PYRIDINE AND PYRIMIDINE CARBOXYLATE HERBICIDES AND METHODS OF USE THEREOF” (Dow AgroSciences LLC, priority 2017, published 2023).

The structures appear in SMILES notation. Read-outs that look alike come from different tables or passages of the source.

The experiment concerns test plant species. Put plainly: Post-emergent herbicidal activity test (greenhouse, foliar spray, visual growth reduction). The following applies: post-emergence, 336 h, 140 g ai/ha, 14 days after application. It counts as in vivo. As for the experimental part:
Post-emergent Test: Seeds or nutlets of the desired test plant species were planted in Sun Gro Metro-Mix® 360 planting mixture, which typically has a pH of 6.0 to 6.8 and an organic matter content of about 30 percent, in plastic pots with a surface area of 64 square centimeters. In some aspects, to ensure good germination and healthy plants, a fungicide treatment and/or other chemical or physical treatment was applied. The plants were grown for 7-21 d in a greenhouse with an approximate 15 h photoperiod which was maintained at 23-29° C. during the day and 22-28° C. during the night. Nutrients and water were added on a regular basis and supplemental lighting was provided with overhead metal halide 1000-Watt lamps as necessary. Plants were used for testing when they reached the first or second true leaf stage. A weighed amount, determined by the highest rate to be tested, of each test compound was placed in a 25 mL glass vial and was dissolved in 4 mL of a 97:3 v/v mixture of acetone and DMSO to obtain concentrated stock solutions. […] The concentrated stock solutions obtained were diluted with 20 mL of an aqueous mixture containing acetone, water, isopropyl alcohol, DMSO, […] crop oil concentrate, and X-77 surfactant in a 48.5:39:10:1.5:1.0:0.02 v/v ratio to obtain spray solutions containing the application rate. Compound requirements are based upon a 12 mL application volume at a rate of 187 liters per hectare (L/ha). Formulated compounds were applied to the plant material with an overhead Mandel track sprayer equipped with […] nozzles calibrated to deliver 187 L/ha over an application area of 0.64 square meters at a spray height of 18 inches (43 cm) above the average plant canopy height. Control plants were sprayed in the same manner with the solvent blank. The treated plants and control plants were placed in a greenhouse as described above and watered by subirrigation to prevent wash-off of the test compounds. After 14 d, the condition of the test plants as compared with that of the nontreated and control plants was determined visually and scored on a scale of 0 to 100 percent where 0 corresponds to no injury and 100 corresponds to complete control. In the reporting of the results, Table A: Percent Growth Reduction Conversion Table was used.

[1] abbreviates: ALOMY: blackgrass (Alopecurus myosuroides), read-out: Visual Growth Reduction (%) 14 Days After Application, ALOMY.
Setting [2] is: AMARE: redroot pigweed (Amaranthus retroflexus), read-out: Visual Growth Reduction (%) 14 Days After Application, AMARE.
Setting [3] is: AVEFA: wild oat (Avena fatua), read-out: Visual Growth Reduction (%) 14 Days After Application, AVEFA.
Setting [4] is: CHEAL: lambsquarters (Chenopodium album), read-out: Visual Growth Reduction (%) 14 Days After Application, CHEAL.
The mark [5] stands for this setting: CIRAR: canada thistle (Cirsium arvense), read-out: Visual Growth Reduction (%) 14 Days After Application, CIRAR.
Setting [6] is: CYPES: yellow nutsedge (Cyperus esculentus), read-out: Visual Growth Reduction (%) 14 Days After Application, CYPES.
The mark [7] stands for this setting: DIGSA: crabgrass (Digitaria sanguinalis), read-out: Visual Growth Reduction (%) 14 Days After Application, DIGSA.
Setting [8] is: ECHCG: barnyardgrass (Echinochloa crus-galli), read-out: Visual Growth Reduction (%) 14 Days After Application, ECHCG.
Where [9] appears, read: KCHSC: kochia (Bassia scoparia), read-out: Visual Growth Reduction (%) 14 Days After Application, KCHSC.
Where [10] appears, read: ORYSA: rice (Oryza sativa), read-out: Visual Growth Reduction (%) 14 Days After Application, ORYSA.
[11] abbreviates: SETFA: giant foxtail (Setaria faberi), read-out: Visual Growth Reduction (%) 14 Days After Application, SETFA.
Setting [12] is: SORVU: grain sorghum (Sorghum vulgare), read-out: Visual Growth Reduction (%) 14 Days After Application, SORVU.
The mark [13] stands for this setting: STEME: common chickweed (Stellaria media), read-out: Visual Growth Reduction (%) 14 Days After Application, STEME.
The mark [14] stands for this setting: TRZAS: wheat, spring (Triticum aestivum), read-out: Visual Growth Reduction (%) 14 Days After Application, TRZAS.

On to `COC(=O)c1nc(-c2cc(F)c(C)cc2Cl)ccc1Cl` [F46, Methyl 3-chloro-6-(2-chloro-5-fluoro-4-methylphenyl) picolinate], for which the pest or weed control at 140 g/ha fell in the range of 0 to 29% under setting [1]; 0 to 29% under setting [2]; 0 to 29% under setting [3]; 60 to 74% under setting [4]; 0 to 29% under setting [5]; 0 to 29% under setting [6]. Further, the pest or weed control at 140 g/ha under setting [7] lay in the range of 0 to 29%; the pest or weed control at 140 g/ha under setting [8] lay in the range of 0 to 29%; the pest or weed control at 140 g/ha under setting [9] was 0 to 29%; the pest or weed control at 140 g/ha under setting [10] fell in the range of 0 to 29%; the pest or weed control at 140 g/ha under setting [11] is 0 to 29%; the pest or weed control at 140 g/ha under setting [12] was 0 to 29%. In addition, the pest or weed control at 140 g/ha by setting is: under setting [13], 0 to 29%; under setting [14], 0 to 29%.

On to `COC(=O)c1nc(-c2cc(OC)c(Cl)cc2Cl)ccc1Cl` [F47, Methyl 3-chloro-6-(2,4-dichloro-5-methoxyphenyl) picolinate], for which the pest or weed control at 140 g/ha lay in the range of 0 to 29% under setting [1]; 0 to 29% under setting [2]; 0 to 29% under setting [3]; 0 to 29% under setting [4]; 0 to 29% under setting [5]; 0 to 29% under setting [6]. Further, the pest or weed control at 140 g/ha was in the range of 0 to 29% under setting [7]; 0 to 29% under setting [8]; 0 to 29% under setting [9]; 0 to 29% under setting [10]; 0 to 29% under setting [11]; 0 to 29% under setting [12]. Further, the pest or weed control at 140 g/ha is 0 to 29% under setting [13] and 0 to 29% under setting [14].

As to `COC(=O)c1nc(-c2ccc(Cl)c(C)c2Cl)ccc1Cl` [F48, Methyl 3-chloro-6-(2,4-dichloro-3-methylphenyl) picolinate], the pest or weed control at 140 g/ha reads like this: under setting [1], 0 to 29%; under setting [2], 60 to 74%; under setting [3], 0 to 29%; under setting [4], 95 to 100%; under setting [5], 0 to 29%; under setting [6], 0 to 29%. Further, the pest or weed control at 140 g/ha runs as follows: under setting [7], 0 to 29%; under setting [8], 0 to 29%; under setting [9], 45 to 59%; under setting [10], 0 to 29%; under setting [11], 0 to 29%; under setting [12], 0 to 29%. Moreover, the pest or weed control at 140 g/ha was 0 to 29% under setting [13] and 0 to 29% under setting [14].

As for `COC(=O)c1nc(-c2cc(C)c(C)cc2Cl)ccc1Cl` [F49, Methyl 3-chloro-6-(2-chloro-4,5-dimethylphenyl) picolinate], the pest or weed control at 140 g/ha is, setting by setting: under setting [1], 0 to 29%; under setting [2], 30 to 44%; under setting [3], 0 to 29%; under setting [4], 45 to 59%; under setting [5], 0 to 29%; under setting [6], 0 to 29%. The pest or weed control at 140 g/ha fell in the range of 0 to 29% under setting [7]; 0 to 29% under setting [8]; 0 to 29% (IPOHE: ivy-leaf morning glory (Ipomoea hederacea), read-out: Visual Growth Reduction (%) 14 Days After Application, IPOHE); 0 to 29% under setting [9]; 0 to 29% under setting [10]; 0 to 29% under setting [11]. Besides, the pest or weed control at 140 g/ha runs as follows: under setting [12], 0 to 29%; under setting [13], 0 to 29%; under setting [14], 0 to 29%.

Consider `COC(=O)c1nc(-c2cc(Cl)c(C#N)cc2Cl)ccc1Cl` [F50, Methyl 3-chloro-6-(2,5-dichloro-4-cyanophenyl) picolinate], for which the pest or weed control at 140 g/ha runs as follows: under setting [1], 0 to 29%; under setting [2], 0 to 29%; under setting [3], 0 to 29%; under setting [4], 60 to 74%; under setting [5], 0 to 29%; under setting [6], 0 to 29%. In addition, the pest or weed control at 140 g/ha is, setting by setting: under setting [7], 0 to 29%; under setting [8], 0 to 29%; under setting [9], 0 to 29%; under setting [10], 0 to 29%; under setting [11], 0 to 29%; under setting [12], 0 to 29%. Moreover, the pest or weed control at 140 g/ha runs as follows: under setting [13], 0 to 29%; under setting [14], 0 to 29%.

In the case of `COC(=O)c1nc(-c2cc(C)c(Cl)cc2Cl)ccc1Cl` [F51, Methyl 3-chloro-6-(2,4-dichloro-5-methylphenyl) picolinate], the pest or weed control at 140 g/ha under setting [1] is 0 to 29%; the pest or weed control at 140 g/ha under setting [2] lay within 45 to 59%; the pest or weed control at 140 g/ha under setting [3] was 0 to 29%; the pest or weed control at 140 g/ha under setting [4] was 45 to 59%; the pest or weed control at 140 g/ha under setting [5] lay within 0 to 29%; the pest or weed control at 140 g/ha under setting [6] fell in the range of 0 to 29%. The pest or weed control at 140 g/ha was 0 to 29% under setting [7]; 0 to 29% under setting [8]; 0 to 29% under setting [9]; 0 to 29% under setting [10]; 0 to 29% under setting [11]; 0 to 29% under setting [12]. Also, the pest or weed control at 140 g/ha fell in the range of 0 to 29% under setting [13] and 0 to 29% under setting [14].

Take `COC(=O)c1nc(-c2ccc(Cl)cc2Cl)ccc1C` [F52, Methyl 6-(2,4-dichlorophenyl)-3-methylpicolinate]: the pest or weed control at 140 g/ha fell in the range of 0 to 29% under setting [1]; 0 to 29% under setting [2]; 0 to 29% under setting [3]; 0 to 29% under setting [4]; 0 to 29% under setting [5]; 0 to 29% under setting [6]. Also, the pest or weed control at 140 g/ha reads like this: under setting [7], 0 to 29%; under setting [8], 0 to 29%; under setting [9], 0 to 29%; under setting [10], 0 to 29%; under setting [11], 0 to 29%; under setting [12], 0 to 29%. Further, the pest or weed control at 140 g/ha under setting [13] lay in the range of 0 to 29% and the pest or weed control at 140 g/ha under setting [14] lay in the range of 0 to 29%.

Take `COC(=O)c1nc(-c2ccc(C(F)(F)F)cc2Cl)ccc1C` [F53, Methyl 6-(2-chloro-4-(trifluoromethyl)phenyl)-3-methylpicolinate]: the pest or weed control at 140 g/ha under setting [1] fell in the range of 60 to 74%; the pest or weed control at 140 g/ha under setting [2] lay within 95 to 100%; the pest or weed control at 140 g/ha under setting [3] fell in the range of 75 to 84%; the pest or weed control at 140 g/ha under setting [4] was 95 to 100%; the pest or weed control at 140 g/ha under setting [5] was 95 to 100%; the pest or weed control at 140 g/ha under setting [6] lay within 0 to 29%. The pest or weed control at 140 g/ha by setting is: under setting [7], 95 to 100%; under setting [8], 0 to 29%; under setting [9], 0 to 29%; under setting [10], 0 to 29%; under setting [11], 0 to 29%; under setting [12], 0 to 29%. Further, the pest or weed control at 140 g/ha runs as follows: under setting [13], 0 to 29%; under setting [14], 0 to 29%.
